{
  "source": "patent US20200030399A1",
  "about": "“HERBAL COMPOSITIONS OF CALIFORNIA POPPY AND METHOD FOR THE TREATMENT OF SLEEP AND DREAM-RELATED DISORDERS” (MONDIAS NATURELS INC., priority 2017, published 2020)",
  "origin": "cited, not measured here",
  "key": {"[1]": {"test_system": "stereotyped behaviour effects of dexamphetamine", "settings": "mice"}, "[2]": {"test_system": "dexamphetamine produced mortality", "settings": "mice"}, "pentetylenetetrazole": {"test_system": "pentetylenetetrazole", "settings": "mice"}, "myorelaxant effects": {"test_system": "myorelaxant effects", "settings": "mice"}, "[3]": {"test_system": "anticholinergic effects of Oxotremorine", "settings": "mice"}, "acetic acid writhing": {"test_system": "acetic acid writhing", "settings": "mice; doses not given; dose-response for the extract"}, "[4]": {"test_system": "reserpine-induced ptosis, akinesia or hypothermia", "settings": "mice"}},
  "data": [
    {"smiles": "CN(C)CCCN1c2ccccc2Sc2ccc(Cl)cc21", "note": "[Chlorpromazine]", "values": [
      {"measurement": "stereotyped behaviour effects of dexamphetamine", "setting": "[1]", "value": "significantly decreased"},
      {"measurement": "protective effect against dexamphetamine produced mortality", "setting": "[2]", "value": "a protective effect was observed"}
    ]},
    {"smiles": "O=C(O)C1N=C(c2ccccc2)c2cc(Cl)ccc2NC1=O", "note": "(centres unmarked) [Clorazepate, Clorazepate dipotassium]", "values": [
      {"measurement": "anticonvulsant effects", "setting": "pentetylenetetrazole", "value": "Dose-dependent anticonvulsant and myorelaxant effects"},
      {"measurement": "myorelaxant effects", "setting": "myorelaxant effects", "value": "Dose-dependent anticonvulsant and myorelaxant effects"}
    ]},
    {"smiles": "CN(C)CCCN1c2ccccc2CCc2ccccc21", "note": "[Imipramine]", "values": [
      {"measurement": "effect against the anticholinergic effects of Oxotremorine", "setting": "[3]", "value": "significantly reduced"}
    ]},
    {"smiles": "CC(=O)Oc1ccccc1C(=O)O", "note": "[acetylsalicylic acid]", "values": [
      {"measurement": "Protection against writing (acetic acid writhing)", "setting": "acetic acid writhing", "value": 60, "unit": "%"}
    ]},
    {"smiles": "CN(C)CCC=C1c2ccccc2CCc2ccccc21", "note": "[amitryptiline]", "values": [
      {"measurement": "effect against reserpine-induced ptosis, akinesia or hypothermia", "setting": "[4]", "value": "significantly reduced ptosis and hypothermia"}
    ]},
    {"smiles": "CC(=O)Nc1ccc(O)cc1", "note": "[paracetamol]", "values": [
      {"measurement": "Protection against writing (acetic acid writhing)", "setting": "acetic acid writhing", "value": 60, "unit": "%"}
    ]}
  ]
}
